Measured values published in patent EP0745595A1, “3-(3-Aryloxyphenyl)-1-(substituted methyl)-s-triazine-2,4,6-oxo or thiotrione herbicidal agents” (American Cyanamid Company, priority 1995, dated 1996).

Assays:
Assay type in all cases: in vivo
[1] = tested on: ABUTILON THEOPHRASTI, MEDIC.; assay: Postemergence herbicidal evaluation, ABUTH (Velvetleaf);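 further: higher means more injury with 8 approaching complete kill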
Summary of the method: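 This postemergence herbicide test used two-week-old velvetleaf seedlings grown in jiffy flats. Each compound was sprayed at 40 psi as a dispersion in 50/50 acetone/water with 0.5% TWEEN®20 surfactant. Plants then received routine greenhouse care. After four to five weeks, injury was scored visually on a 0-9 scale against a control, and replicate tests were averaged.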

[2] = tested on: AMBROSIA ARTEMISIIFOLIA, L.; assay: Postemergence herbicidal evaluation, AMBEL (Ragweed, Common);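 further: higher means more injury with 8 approaching complete kill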
Summary of the method: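 Postemergence herbicidal activity on AMBEL (common ragweed) was assessed on two-week-old seedlings grown in jiffy flats. Treatment solutions of 50/50 acetone/water with 0.5% TWEEN®20 surfactant were sprayed at 40 psi. After four to five weeks in the greenhouse, plants were scored 0-9 against a control for stand, vigor, malformation, size, chlorosis and overall appearance, with multiple tests averaged.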

CASSIA OBTUSIFOLIA, L. = assay: Postemergence herbicidal evaluation, CASOB (Sicklepod); parameters: key to CASOB rating / Herbicidal effect rating, CASOB / CASOB: 0-9 visual rating scale vs untreated control;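 further: higher means more injury with 8 approaching complete kill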
Summary of the method: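 Spray: acetone/water 50/50 + 0.5% TWEEN 20; rate ~0.125–0.500 kg/ha; nozzle 40 psi; ~2-wk seedlings. Read: visual 0–9 rating at 4–5 wk post-treatment vs control; replicate tests averaged.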

IPOMOEA SPP. = assay: Postemergence herbicidal evaluation, IPOSS (Morningglory spp.);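 further: higher means more injury with 8 approaching complete kill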
Summary of the method: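 In this greenhouse postemergence herbicide test on Ipomoea spp. (morningglory), compounds in 50/50 acetone/water with 0.5% TWEEN®20 were sprayed at 40 psi onto seedlings about two weeks old grown in jiffy flats. After four to five weeks, injury was scored on a 0-9 scale covering stand, vigor, malformation, size, chlorosis and overall appearance versus control, with repeat tests averaged.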

GALIUM APARINE = assay: Postemergence herbicidal evaluation, GALAP (Galium); parameters: key to GALAP rating / Herbicidal effect rating, GALAP / GALAP: 0-9 visual rating scale vs untreated control;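 further: higher means more injury with 8 approaching complete kill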
Summary of the method: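 In this postemergence greenhouse test, two-week-old Galium aparine seedlings grown in jiffy flats received a 40 psi spray of compound in acetone/water (50/50) with 0.5% TWEEN®20 surfactant. After four to five weeks, stand, vigor, malformation, size, chlorosis and overall appearance were compared with untreated controls on a 0-9 scale, averaging multiple tests.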

[3] = tested on: ECHINOCHLOA CRUS-GALLI, (L) BEAU; assay: Postemergence herbicidal evaluation, ECHCG (Barnyardgrass); parameters: key to ECHCG rating / Herbicidal effect rating, ECHCG / ECHCG: 0-9 visual rating scale vs untreated control
Summary of the method: (§1)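 Postemergence foliar spray at approximately 0.125–0.500 kg/ha onto two-week seedlings; greenhouse hold, then 0–9 visual injury rating after 4–5 weeks.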

[4] = tested on: SETARIA VIRIDIS, (L) BEAU; assay: Postemergence herbicidal evaluation, SETVI (Foxtail, Green); parameters: key to SETVI rating / Herbicidal effect rating, SETVI / SETVI: 0-9 visual rating scale vs untreated control
Summary of the method: as §1

[5] = tested on: TRITICUM AESTIVUM, CV. APOLLO; assay: Postemergence herbicidal evaluation, TRZAWO (Wheat, Winter, CV. APOLLO);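 further: higher means more injury with 8 approaching complete kill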
Summary of the method: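 This greenhouse postemergence test applied compounds to roughly two-week-old wheat seedlings grown in jiffy flats. The spray solution was 50/50 acetone/water with 0.5% TWEEN®20, a polyoxyethylene sorbitan monolaurate, sprayed from a nozzle run at 40 psi. After four to five weeks of standard greenhouse care, injury was scored from 0 to 9 by comparing stand, vigor, malformation, size, chlorosis and overall appearance with a control. Multiple tests were averaged.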

ZEA MAYS L. = assay: Postemergence herbicidal evaluation, ZEAMX (Corn, Field);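 further: higher means more injury with 8 approaching complete kill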
Summary of the method: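 This greenhouse postemergence test treated corn plants about two weeks old. Compounds in a 50/50 acetone/water mixture with 0.5% TWEEN®20 were applied through a spray nozzle at 40 psi. After four to five weeks, injury was scored 0-9 against an untreated control, judging stand, vigor, malformation, size, chlorosis and overall appearance. Repeated tests were averaged.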

CHENOPODIUM ALBUM, L. = assay: Preemergence herbicidal evaluation, CHEAL (Lambsquarters, Common);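 further: higher means more injury with 8 approaching complete kill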
Summary of the method: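 Preemergence, greenhouse: seed + potting soil sown on ~1 inch soil in cups; aqueous acetone spray, ~0.125–0.50 kg/ha equivalent; rated 0-9 vs control at 4–5 wk.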

[6] = tested on: ORYZA SATIVA, L. TEBONNET; assay: Rice tolerance to post-transplant applications under flooded paddy conditions, ORYSAT (Rice, Tebonnet); conditions: post-transplanted rice
Summary of the method: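 Rated on a visual 0–9 scale against untreated plants 3–4 weeks after application, rice (cv. Tebonnet) tolerance was tested by applying compounds (approx. 0.5–0.063 kg/ha, acetone/water 50/50) to flooded soil three days post-transplant, water kept 1.5–3 cm deep.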

Cn1c(=O)[nH]c(=O)n(-c2cc(Oc3ccc(C(F)(F)F)cc3Cl)ccc2Cl)c1=O [F, reference compound]
ABUTH ([1]; Rate 0.016 kg/ha): 4.0 | ABUTH ([1]; Rate 0.032 kg/ha): 4.0 | ABUTH ([1]; Rate 0.063 kg/ha): 5.0 | ABUTH ([1]; Rate 0.125 kg/ha): 5.0 | ABUTH ([1]; Rate 0.250 kg/ha): 7.0 | ABUTH ([1]; Rate 0.500 kg/ha): 9.0 | AMBEL ([2]; Rate 0.016 kg/ha): 2.0 | AMBEL ([2]; Rate 0.032 kg/ha): 3.0 | AMBEL ([2]; Rate 0.063 kg/ha): 6.0 | AMBEL ([2]; Rate 0.125 kg/ha): 6.0 | AMBEL ([2]; Rate 0.250 kg/ha): 6.0 | AMBEL ([2]; Rate 0.500 kg/ha): 7.0 | CASOB (CASSIA OBTUSIFOLIA, L.; Rate 0.016 kg/ha): 2.0 | CASOB (CASSIA OBTUSIFOLIA, L.; Rate 0.032 kg/ha): 4.0 | CASOB (CASSIA OBTUSIFOLIA, L.; Rate 0.063 kg/ha): 5.0 | CASOB (CASSIA OBTUSIFOLIA, L.; Rate 0.125 kg/ha): 8.0 | CASOB (CASSIA OBTUSIFOLIA, L.; Rate 0.250 kg/ha): 9.0 | CASOB (CASSIA OBTUSIFOLIA, L.; Rate 0.500 kg/ha): 6.5 | IPOSS (IPOMOEA SPP.; Rate 0.016 kg/ha): 3.0 | IPOSS (IPOMOEA SPP.; Rate 0.032 kg/ha): 4.0 | IPOSS (IPOMOEA SPP.; Rate 0.063 kg/ha): 6.0 | IPOSS (IPOMOEA SPP.; Rate 0.125 kg/ha): 5.0 | IPOSS (IPOMOEA SPP.; Rate 0.250 kg/ha): 6.0 | IPOSS (IPOMOEA SPP.; Rate 0.500 kg/ha): 7.0 | GALAP (GALIUM APARINE; Rate 0.016 kg/ha): 5.0 | GALAP (GALIUM APARINE; Rate 0.032 kg/ha): 6.0 | GALAP (GALIUM APARINE; Rate 0.063 kg/ha): 6.0 | GALAP (GALIUM APARINE; Rate 0.125 kg/ha): 6.0 | GALAP (GALIUM APARINE; Rate 0.250 kg/ha): 8.0 | GALAP (GALIUM APARINE; Rate 0.500 kg/ha): 6.0 | ECHCG ([3]; Rate 0.016 kg/ha): 0.0 | ECHCG ([3]; Rate 0.032 kg/ha): 0.0 | ECHCG ([3]; Rate 0.063 kg/ha): 0.0 | ECHCG ([3]; Rate 0.125 kg/ha): 1.0 | ECHCG ([3]; Rate 0.250 kg/ha): 2.0 | ECHCG ([3]; Rate 0.500 kg/ha): 2.0 | SETVI ([4]; Rate 0.016 kg/ha): 0.0 | SETVI ([4]; Rate 0.032 kg/ha): 1.0 | SETVI ([4]; Rate 0.063 kg/ha): 3.0 | SETVI ([4]; Rate 0.125 kg/ha): 2.0 | SETVI ([4]; Rate 0.250 kg/ha): 3.0 | SETVI ([4]; Rate 0.500 kg/ha): 3.0 | TRZAWO ([5]; Rate 0.016 kg/ha): 1.5 | TRZAWO ([5]; Rate 0.032 kg/ha): 1.5 | TRZAWO ([5]; Rate 0.063 kg/ha): 2.5 | TRZAWO ([5]; Rate 0.125 kg/ha): 3.0 | TRZAWO ([5]; Rate 0.250 kg/ha): 3.5 | TRZAWO ([5]; Rate 0.500 kg/ha): 3.5 | ZEAMX (ZEA MAYS L.; Rate 0.016 kg/ha): 1.5 | ZEAMX (ZEA MAYS L.; Rate 0.032 kg/ha): 2.0 | ZEAMX (ZEA MAYS L.; Rate 0.063 kg/ha): 2.5 | ZEAMX (ZEA MAYS L.; Rate 0.125 kg/ha): 3.0 | ZEAMX (ZEA MAYS L.; Rate 0.250 kg/ha): 4.0 | ZEAMX (ZEA MAYS L.; Rate 0.500 kg/ha): 4.0 | CHEAL (CHENOPODIUM ALBUM, L.; Rate 0.063 kg/ha): 9.0 | CHEAL (CHENOPODIUM ALBUM, L.; Rate 0.125 kg/ha): 9.0 | CHEAL (CHENOPODIUM ALBUM, L.; Rate 0.250 kg/ha): 9.0 | CHEAL (CHENOPODIUM ALBUM, L.; Rate 0.500 kg/ha): 9.0 | ORYSAT ([6]; Rate 0.031 kg/ha): 0.0 | ORYSAT ([6]; Rate 0.063 kg/ha): 0.0 | ORYSAT ([6]; Rate 0.125 kg/ha): 1.0 | ORYSAT ([6]; Rate 0.250 kg/ha): 2.0
